≈ marks a conversion by molar mass, not a printed value.
How the values were obtained:
E. coli CFT073 [1] = test: Determination of minimum inhibitory concentration (MIC); format: cell-based; settings: Escherichia coli, CFT073, 18 h
Protocol: (§1) A range of concentration of antibiotics, ciprofloxacin (0.0003-0.25 μg mL^−1) and carbenicillin (0.5-512 μg mL^−1), are chosen due to their known potency against all four bacterial strains. Dilutions are prepared in flat bottom, 96 well microtitre plates (Falcon™, Corning™, Fisher Scientific, ON, Canada). Each well of a microtitre plate is then inoculated with the desired bacterial strain (grown in MHB-II and diluted to […]) and the plate is incubated at 37° C. for 18 h under static conditions. Bacterial growth is assessed by (i) monitoring the optical density of the cell suspension in each well at 600 nm (OD600 nm), and (ii) the resazurin microtitre plate assay. In the resazurin microtitre plate assay, each well of a microtitre plate is supplemented with 20 μM resazurin, incubated in the dark for 20 min at room temperature, followed by fluorescence measurements at ex/em 570/590 nm using a TECAN Infinite M200 Pro microplate reader (Tecan Group Ltd., Switzerland). The lowest concentration of a compound able to prevent increase in OD600 nm and resazurin fluorescence intensity is recorded as the MIC for that compound.

P. aeruginosa PA14 = test: as above; format: cell-based; settings: Pseudomonas aeruginosa, PA14, 18 h
Protocol: as §1

P. aeruginosa PAO1 = test: as above; format: cell-based; settings: Pseudomonas aeruginosa, PAO1, 18 h
Protocol: as §1

P. mirabilis HI4320 = test: as above; format: cell-based; settings: Proteus mirabilis, HI4320, 18 h
Protocol: as §1

E. coli CFT073 [2] = test: Checkerboard microdilution assay (growth inhibition synergy); format: cell-based, Escherichia coli
Protocol: The checkerboard microdilution assay is used for evaluation of in vitro antimicrobial synergy between two compounds (i.e., antibiotic/PRMSE, antibiotic/pure phenolic compound, and pure phenolic compounds with each other). Two-fold serial dilutions are prepared in MHB-II for each of the two compounds under study. The serial dilutions are then loaded into 96 well plates to achieve combinations having different concentrations of each of the two compounds. Each well is subsequently inoculated with 10^6 CFU mL^−1 of the desired bacterial strain and incubated at 37° C. for 18 h under static conditions. The Fractional Inhibitory Concentration Index (FICI) for each combination is calculated by using the following formula: FICcomponent 1=MICcomponent 1, in combination/MICcomponent 1,alone FICI=FICcomponent 1+FICcomponent 2
The FICIs are interpreted as follows: FICI of […] (synergy); 0.5<FICI ≤1 (no interaction/indifference); FICI of >4 (antagonism).

[3] = test system: P. mirabilis HI4320 biofilm; test: Biofilm formation, microtitre plate crystal violet assay; format: cell-based, Proteus mirabilis; settings: p<0.05
Protocol: Biofilm formation is quantified using the standard microtitre plate model. […] Aliquots (100 μL) of these cultures are transferred into the wells of polystyrene, flat bottom, non-treated 96 well plates (Falcon™, Corning™), in triplicate. For all assays, biofilms are allowed to develop for 16 h at 37° C. under static conditions, after which OD600 values are recorded, the spent broth is decanted from the wells, and the wells are gently rinsed three times with DI water. The washed biofilm is stained with crystal violet (CV). For CV stain assay, 100 μL of 0.1% (w/v) CV is loaded in each well and the plates are incubated for 15 min under static conditions at room temperature. The wells are subsequently rinsed with DI water to remove excess dye and the CV adsorbed to the biomass in each well is solubilized in 100 μL of absolute ethanol for 10 min. The solubilized CV is then quantified (as OD570) using a microplate reader. Control experiments are performed with cell-free broth to adjust for the background signal.

[4] = test system: outer membrane of P. mirabilis HI4320; test: Outer membrane permeabilization, NPN uptake assay; format: cell-based, Proteus mirabilis; settings: sub-MIC; concentration giving maximal increase in NPN uptake
Protocol: (§2) The cells are harvested, washed with 5 mM HEPES buffer (pH 7.2), and resuspended in the same volume (10 mL) of 5 mM HEPES buffer (pH 7.2) containing 1 mM N-ethylmaleimide (NEM, Sigma-Aldrich Canada). Aliquots (1 mL) are mixed with NPN to a final concentration of 10 μM (in cell suspension) and fluorescence is measured using the microplate reader (ex/em 350/420 nm).

[5] = test system: outer membrane of P. aeruginosa PA14; test: Outer membrane permeabilization, NPN uptake assay; format: cell-based, Pseudomonas aeruginosa; settings: sub-MIC; concentration giving maximal increase in NPN uptake
Protocol: as §2

[6] = test system: outer membrane of P. aeruginosa PAO1; test: Outer membrane permeabilization, NPN uptake assay; format: cell-based, Pseudomonas aeruginosa; settings: sub-MIC; concentration giving maximal increase in NPN uptake
Protocol: as §2

[7] = test system: cell membrane of P. mirabilis HI4320; test: BacLight membrane integrity assay; format: cell-based, Proteus mirabilis; settings: PRMSE, catechol at 4 × MIC for 10 min; CTAB 10 μM; untreated = 100
Protocol: The BacLight kit (L-13152, Invitrogen™, Life Technologies Inc., Canada) is used to assess cell membrane damage. Overnight bacterial cultures are diluted 1:40 in fresh MHBII broth to a final volume of 5 mL, grown to an OD600 of 0.5-0.6, washed with filter-sterilized 10 mM phosphate buffered saline (PBS, pH 7.0) and resuspended in 1/10 of the original volume. […] Cultures are incubated at room temperature (21±2° C.) on a tube rocker for 10 min. At the end of the incubation period, an aliquot is taken for CFU counts and the remaining suspension is washed with 10 mM PBS and resuspended to an OD600) of 0.3. An aliquot (100 μL) of each bacterial suspension is removed and added to a 96-well, black, clear-bottom plate (Corning™, Fisher Scientific, ON, Canada) along with an equal volume of the BacLight™ reagent (2× stock solution, L13152, Invitrogen™, Life Technologies Inc., Canada) and the plates are incubated for 10 min at room temperature in the dark. At the end of the incubation period, fluorescence intensity is recorded for both kit components, SYTO-9 (ex/em 485/530 nm) and propidium iodide (ex/em 485/645 nm), using the microplate reader. Fluorescence readings from samples are normalized to the values obtained from untreated control to determine the ratio of membrane compromised cells to cells with intact membrane. […]

[8] = test system: cell membrane of P. aeruginosa PA14; test: BacLight membrane integrity assay; format: cell-based, Pseudomonas aeruginosa; settings: PRMSE, catechol at 4 × MIC for 10 min; CTAB 10 μM; untreated = 100
Protocol: (§3) The BacLight kit (L-13152, Invitrogen™, Life Technologies Inc., Canada) is used to assess cell membrane damage. Overnight bacterial cultures are diluted 1:40 in fresh MHBII broth to a final volume of 5 mL, grown to an OD600 of 0.5-0.6, washed with filter-sterilized 10 mM phosphate buffered saline (PBS, pH 7.0) and resuspended in 1/10 of the original volume. […] Cultures are incubated at room temperature (21±2° C.) on a tube rocker for 10 min. At the end of the incubation period, an aliquot is taken for CFU counts and the remaining suspension is washed with 10 mM PBS and resuspended to an OD600) of 0.3. An aliquot (100 μL) of each bacterial suspension is removed and added to a 96-well, black, clear-bottom plate (Corning™, Fisher Scientific, ON, Canada) along with an equal volume of the BacLight™ reagent (2× stock solution, L13152, Invitrogen™, Life Technologies Inc., Canada) and the plates are incubated for 10 min at room temperature in the dark. At the end of the incubation period, fluorescence intensity is recorded for both kit components, SYTO-9 (ex/em 485/530 nm) and propidium iodide (ex/em 485/645 nm), using the microplate reader. Fluorescence readings from samples are normalized to the values obtained from untreated control to determine the ratio of membrane compromised cells to cells with intact membrane. Cetyltrimethylammonium bromide (CTAB, Sigma-Aldrich Canada), a cationic detergent that is known to cause membrane damage, is used at concentration of 10 μM as a positive control for membrane disruption.

[9] = test system: cell membrane of P. aeruginosa PAO1; test: BacLight membrane integrity assay; format: cell-based, Pseudomonas aeruginosa; settings: PRMSE, catechol at 4 × MIC for 10 min; CTAB 10 μM; untreated = 100
Protocol: as §3

Compound: Oc1ccccc1O [catechol, 1,2-dihydroxybenzene]
- MIC (E. coli CFT073 [1]): 1250 µg/mL (≈ 11.4 mM)
- MIC (P. aeruginosa PA14): 2500 µg/mL (≈ 22.7 mM)
- MIC (P. aeruginosa PAO1): 2500 µg/mL (≈ 22.7 mM)
- MIC (P. mirabilis HI4320): 1250 µg/mL (≈ 11.4 mM)
- FIC of ciprofloxacin (E. coli CFT073 [2]; ciprofloxacin in combination with the labelled phenolic constituent): 0.25
- FICI, gallic acid (E. coli CFT073 [2]; labelled constituent + gallic acid, * = synergistic): 0.25*
- FIC, gallic acid (E. coli CFT073 [2]; labelled constituent combined with gallic acid): 0.13
- FIC of compound (E. coli CFT073 [2]; labelled phenolic constituent in combination with ciprofloxacin): 0.25
- inhibition of monoculture biofilm formation (OD570/OD600) ([3]; substance alone at sub-lethal concentrations, 16 h): significant inhibitory effects
- inhibitory effect on biofilm formation, with ciprofloxacin ([3]; with ciprofloxacin, both at sub-lethal concentrations): significant inhibitory effects
- Minimum permeabilization concentration [4]: 1 mg/mL
- Minimum permeabilization concentration [5]: 0.5 mg/mL
- Minimum permeabilization concentration [6]: 0.5 mg/mL
- % cells with uncompromised membrane [7]: 50.3%
- % cells with uncompromised membrane [8]: 78.6%
- % cells with uncompromised membrane [9]: 80.4%

From US10206906B2, “Synergistic combination of a phenolic-rich maple syrup extract and an antibiotic” (priority 2015, dated 2019)
